Converted amounts (≈) assume the structure as drawn. Where two headings read alike, the source gives them in different places.
How the values were obtained:
Type in all cases: physicochemical
[1] = Solubility of N-2 in water and solvents
Procedure: N-2 has an aqueous solubility of <1 μg/mL in water.

[2] = Solid state stability of N-2 free base form
Procedure: Solid state stability was conducted only on N-2, at 5° C., 25° C., 40° C./75% RH (open and closed), and 50° C. for up to 4 weeks.

[3] = Form stability on heating (PXRD); settings: heating to 270° C.
Procedure: FIG. 1 depicts PXRD patterns of the N-2 form at room temperature (bottom), 165° C. (middle) and 270° C. (top).
The crystal structure for Compound 1 was determined by single crystal X-ray diffraction studies on elongated prismatic crystals grown from THF/heptane. The intermolecular hydrogen-bonding in the N-2 structure is shown in FIGS. 12A-12B; the structure contains small voids of about 20 Å^3. The experimental PXRD pattern for N-2 matches the simulated pattern which confirms the single phase identity of N-2 crystallized in bulk (FIG. 13). […] (FIG. 1).

[4] = Form stability on slurrying in aqueous solutions (PXRD); settings: slurry at RT in FASIF and in HCl (pH=1)
Source text: FIG. 16 depicts PXRD patterns of: P1 form following slurrying thereof in FASIF (fasted state simulated intestinal fluid) (top); in HCl (pH=1) (middle); and of N-2 form (bottom). […] (FIG. 14). […] (FIG. 15).

Row | solubility ([1]; PEG 400, organic solvent or mixture, read-out: solubility in PEG 400) [mg/mL] | solubility ([1]; in water, read-out: aqueous solubility) [mg/mL] | Solid state stability (chemical and physical) ([2]; 5° C., 25° C., 40° C./75% RH (open and closed), and 50° C. for up to 4 weeks) | Stability when exposed to high intensity light (HIL)/ultraviolet (UV) light ([2]; HIL/UV light for 7 days) | Physical form after heating [3] | Form after slurrying in aqueous solutions [4] | SMILES
1 | ~38 (≈ 66.1 mM) | < 0.001 | chemically and physically stable | chemically and physically stable | No physical change in form |  | Cc1cccc2c1NC(=O)[C@@H](NC(=O)[C@H](CCC(F)(F)F)[C@H](CCC(F)(F)F)C(N)=O)N=C2c1cccc(F)c1 [Compound N-2]
2 |  |  |  |  |  | converts to N-2 | Cc1cccc2c1NC(=O)[C@@H](NC(=O)[C@H](CCC(F)(F)F)[C@H](CCC(F)(F)F)C(N)=O)N=C2c1cccc(F)c1 [Compound P1]
